We go through 12 molecules from US12043632B2, “6-heteroaryloxy benzimidazoles and azabenzimidazoles as JAK2 inhibitors” (Ajax Therapeutics, Inc., priority 2020, dated 2024).

The target of this experiment is T1, JAK2 (JH1domain-catalytic, Y1007F,Y1008F) kinase (Homo sapiens, UniProt O60674, Y1007F/Y1008F).
T1 construct: JAK2 (JH1domain-catalytic, Y1007F,Y1008F) kinase was expressed as N-terminal fusion; made in house; host or cells: transiently transfected HEK293 cells
Put plainly: JAK2 JH1 Domain Binding Assay. The conditions noted are these: qPCR readout.

T1 sequence (O60674 849-1124 Y1007F/Y1008F limits assumed): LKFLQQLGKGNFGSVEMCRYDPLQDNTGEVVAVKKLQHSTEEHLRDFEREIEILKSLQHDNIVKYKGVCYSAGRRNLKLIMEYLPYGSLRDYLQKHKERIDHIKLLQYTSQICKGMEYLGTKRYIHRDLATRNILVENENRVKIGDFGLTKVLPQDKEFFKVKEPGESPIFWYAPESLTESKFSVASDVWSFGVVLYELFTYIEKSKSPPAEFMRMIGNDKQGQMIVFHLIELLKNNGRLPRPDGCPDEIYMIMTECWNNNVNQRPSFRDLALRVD

As to `Cn1c(Nc2cc(C(F)(F)F)cn(C3CC4(COC4)C3)c2=O)nc2ncc(Oc3cnn4ccncc34)c(Cl)c21` [Example I-90, 3-((7-chloro-1-methyl-6-(pyrazolo[1,5-a]pyrazin-3-yloxy)-1H-imidazo[4,5-b]pyridin-2-yl)amino)-1-(2-oxaspiro[3.3]heptan-6-yl)-5-(trifluoromethyl)pyridin-2(1H)-one], the Kd is under 10 nM.
Under `C[C@H](CO)Cn1cc(C2CC2)cc(Nc2nc3ncc(Oc4cnn5ccncc45)c(Cl)c3n2C)c1=O` (single isomer, unassigned) [Example I-81-a] stands under 10 nM; under `Cn1c(Nc2cc3n(n2)CCCC3(F)F)nc2ncc(Oc3cnn4ccncc34)c(C#N)c21` [Example I-362, 2-((4,4-difluoro-4,5,6,7-tetrahydropyrazolo[1,5-a]pyridin-2-yl)amino)-1-methyl-6-(pyrazolo[1,5-a]pyrazin-3-yloxy)-1H-imidazo[4,5-b]pyridine-7-carbonitrile], 10 to 50 nM; under `Cn1c(Nc2cc(CN3CC[C@H](O)C3)cc(C(F)(F)F)c2)nc2ncc(Oc3cnn4ccncc34)c(Cl)c21` [Example I-205, (S)-1-(3-((7-chloro-1-methyl-6-(pyrazolo[1,5-a]pyrazin-3-yloxy)-1H-imidazo[4,5-b]pyridin-2-yl)amino)-5-(trifluoromethyl)benzyl)pyrrolidin-3-ol], under 10 nM.
Under `Cn1c(Nc2cc(C(C)(C)C)n([C@H]3C[C@H](O)C3)n2)nc2ncc(Oc3cnc4cnc(C5CC5)n4c3)c(Cl)c21` [Example I-88, trans-3-(5-(tert-butyl)-3-((7-chloro-6-((6-cyclopropylimidazo[1,5-a]pyrimidin-3-yl)oxy)-1-methyl-1H-imidazo[4,5-b]pyridin-2-yl)amino)-1H-pyrazol-1-yl)cyclobutan-1-ol] stands 10 to 50 nM.
`Cn1cc(C(F)(F)F)cc(Nc2nc3ncc(Oc4cnc5[nH]c(C6CC6)cc5c4)c(C#N)c3n2C)c1=O` [Example I-296, 6-((2-cyclopropyl-1H-pyrrolo[2,3-b]pyridin-5-yl)oxy)-1-methyl-2-((1-methyl-2-oxo-5-(trifluoromethyl)-1,2-dihydropyridin-3-yl)amino)-1H-imidazo[4,5-b]pyridine-7-carbonitrile] had a Kd of 10 to 50 nM.
Under `CNc1nccn2ncc(Oc3cnc4nc(Nc5cc(C(F)(F)F)c(C#N)n(C)c5=O)n(C)c4c3Cl)c12` [Example I-233, 5-((7-chloro-1-methyl-6-((4-(methylamino)pyrazolo[1,5-a]pyrazin-3-yl)oxy)-1H-imidazo[4,5-b]pyridin-2-yl)amino)-1-methyl-6-oxo-3-(trifluoromethyl)-1,6-dihydropyridine-2-carbonitrile] stands 50 to 1000 nM; under `CN1CCCCC1COc1cc(Nc2nc3ncc(Oc4cnn5ccncc45)c(Cl)c3n2C)cc(C(F)(F)F)c1` (single isomer, unassigned) [Example I-350-b], under 10 nM; under `Cn1cc(C(F)(F)F)cc(Nc2nc3ncc(Oc4cnc5[nH]ccc5c4)c(C#N)c3n2C)c1=O` [Example I-265, 6-((1H-pyrrolo[2,3-b]pyridin-5-yl)oxy)-1-methyl-2-((1-methyl-2-oxo-5-(trifluoromethyl)-1,2-dihydropyridin-3-yl)amino)-1H-imidazo[4,5-b]pyridine-7-carbonitrile], under 10 nM.
Under `Cn1c(Nc2cc(C(F)(F)F)cn([C@@H]3CC[C@H]3O)c2=O)nc2ncc(Oc3cnn4ccncc34)c(Cl)c21` (single isomer, unassigned) [Example I-105-b] stands under 10 nM; under `COc1c(Oc2cnn3ccncc23)cnc2nc(Nc3cc(C(C)(C)C)n([C@H]4CCC[C@H]4O)n3)n(C)c12` (single isomer, unassigned) [Example I-69-a], 50 to 1000 nM; under `Cc1n[nH]c2ncc(Oc3cnc4nc(Nc5cc(C(F)(F)F)cn(C)c5=O)n(C)c4c3C#N)cc12` [Example I-341, 1-methyl-6-((3-methyl-1H-pyrazolo[3,4-b]pyridin-5-yl)oxy)-2-((1-methyl-2-oxo-5-(trifluoromethyl)-1,2-dihydropyridin-3-yl)amino)-1H-imidazo[4,5-b]pyridine-7-carbonitrile], under 10 nM.
